From patent US20230346670A1, “Prebiotic Oral Care Compositions and Methods” (Colgate-Palmolive Company, priority 2020, published 2023)
Marks after values point to notes of the source that are not given here.

Assays:
Assay type in all cases: cell-based
S. sanguinis = assay: Multi-species biofilm composition, absolute abundance (Geq/mL); details: repeated rinsing
How it was run: (§1)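 Biofilms grown vertically on CAD-HA disks in the Amsterdam Active Adhesion model, 24 h at 37° C., 170 rpm, microaerophilic (6% O2, 7% CO2, 7% H2, 80% N2). Then rinsed 3 times a day for 3 minutes at 1 M substrate for 3 days; PBS (pH 5.7) control. Values are log(Geq/mL), mean ± SD, n = 3.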

A. viscosus = assay: as above; details: repeated rinsing
V. parvula = assay: as above; details: repeated rinsing
S. salivarius = assay: as above; details: repeated rinsing
S. mutans = assay: as above; details: repeated rinsing
F. nucleatum = assay: as above; details: repeated rinsing
How it was run: as §1

P. intermedia = assay: as above; details: repeated rinsing
How it was run: as §1

S. gordonii = assay: as above; details: repeated rinsing
How it was run: as §1

A. actinomycetemcomitans = assay: as above; details: repeated rinsing
A. naeslundii = assay: as above; details: repeated rinsing
How it was run: as §1

S. sobrinus = assay: as above; details: repeated rinsing
How it was run: as §1

S. mitis = assay: as above; details: repeated rinsing
S. oralis = assay: as above; details: repeated rinsing
How it was run: as §1

P. gingivalis = assay: as above; details: repeated rinsing
How it was run: as §1

[1] = tested on: P. gingivalis virulence genes; assay: Virulence gene expression in multi-species biofilm (SYBR RT-qPCR); details: for fold change in fimA expression, geometric mean (95% C.I.) / fold change in kgp expression, geometric mean (95% C.I.) / fold change in partC expression, geometric mean (95% C.I.) / fold change in rgpA expression, geometric mean (95% C.I.): relative to control, 2^-ΔΔCt, n = 3
How it was run: (§2)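 Multi-species biofilms on hydroxyapatite disks were grown 24 h under microaerophilic conditions at 37 °C, then rinsed three times daily for 3 min over 3 days with substrate in PBS at 1 M or 1% (w/v); PBS pH 5.7 served as control. Virulence gene expression was measured by SYBR RT-qPCR normalized to housekeeping genes, giving 2^-ΔΔCt fold change versus control as geometric mean (n = 3).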

[2] = tested on: A. actinomycetemcomitans virulence genes; assay: as above
How it was run: as §2

[3] = lower part of Table 6a, substrate 1%(w/v), relative to control = 1
[4] = substrate 1 M, relative to control = 1, 2^-ΔΔCt, n = 3

SMILES: CC(=O)N[C@H]1C(O)O[C@H](CO)[C@@H](O)[C@@H]1O (stereo partly drawn) [NADG, N-acetyl-D-glucosamine]
- absolute abundance of S. sanguinis, mean ± SD log (Geq/mL) (S. sanguinis; substrate 1% (w/v)): 8.40 ± 0.11 log (Geq/mL)
- absolute abundance of S. sanguinis, mean ± SD log (Geq/mL) (S. sanguinis; substrate 1 M in PBS, n = 3): 6.43 ± 0.94 log (Geq/mL)
- absolute abundance of A. viscosus (Av), mean ± SD log (Geq/mL) (A. viscosus; substrate 1% (w/v)): 7.83 ± 0.31 log (Geq/mL)
- absolute abundance of A. viscosus (Av), mean ± SD log (Geq/mL) (A. viscosus; substrate 1 M in PBS, n = 3): 6.72 ± 0.22 log (Geq/mL)
- absolute abundance of V. parvula (VP), mean ± SD log (Geq/mL) (V. parvula; substrate 1% (w/v)): 9.77 ± 0.19 log (Geq/mL)
- absolute abundance of V. parvula (VP), mean ± SD log (Geq/mL) (V. parvula; substrate 1 M in PBS, n = 3): 9.91 ± 0.19 log (Geq/mL)
- absolute abundance of S. salivarius, mean ± SD log (Geq/mL) (S. salivarius; substrate 1% (w/v)): 2.65 ± 0.00 log (Geq/mL)
- absolute abundance of S. salivarius, mean ± SD log (Geq/mL) (S. salivarius; substrate 1 M in PBS, n = 3): 6.40 ± 0.29^∗ log (Geq/mL)
- absolute abundance of S. mutans, mean ± SD log (Geq/mL) (S. mutans; substrate 1% (w/v)): 7.83 ± 0.23 log (Geq/mL)
- absolute abundance of S. mutans, mean ± SD log (Geq/mL) (S. mutans; substrate 1 M in PBS, n = 3): 7.96 ± 0.10 log (Geq/mL)
- absolute abundance of F. nucleatum (Fn), mean ± SD log (Geq/mL) (F. nucleatum; substrate 1% (w/v)): 9.41 ± 0.19 log (Geq/mL)
- absolute abundance of F. nucleatum (Fn), mean ± SD log (Geq/mL) (F. nucleatum; substrate 1 M in PBS, n = 3): 7.22 ± 0.28^∗ log (Geq/mL)
- absolute abundance of P. intermedia (Pi), mean ± SD log (Geq/mL) (P. intermedia; substrate 1% (w/v)): 8.17 ± 0.22 log (Geq/mL)
- absolute abundance of P. intermedia (Pi), mean ± SD log (Geq/mL) (P. intermedia; substrate 1 M in PBS, n = 3): 4.09 ± 0.16^∗ log (Geq/mL)
- absolute abundance of S. gordonii, mean ± SD log (Geq/mL) (S. gordonii; substrate 1% (w/v)): 8.33 ± 0.06 log (Geq/mL)
- absolute abundance of S. gordonii, mean ± SD log (Geq/mL) (S. gordonii; substrate 1 M in PBS, n = 3): 9.80 ± 0.22^∗ log (Geq/mL)
- absolute abundance of A. actinomycetemcomitans (Aa), mean ± SD log (Geq/mL) (A. actinomycetemcomitans; substrate 1% (w/v)): 9.11 ± 0.2 log (Geq/mL)
- absolute abundance of A. actinomycetemcomitans (Aa), mean ± SD log (Geq/mL) (A. actinomycetemcomitans; substrate 1 M in PBS, n = 3): 8.15 ± 0.21^∗ log (Geq/mL)
- absolute abundance of A. naeslundii (An), mean ± SD log (Geq/mL) (A. naeslundii; substrate 1% (w/v)): 7.71 ± 0.12 log (Geq/mL)
- absolute abundance of A. naeslundii (An), mean ± SD log (Geq/mL) (A. naeslundii; substrate 1 M in PBS, n = 3): 5.41 ± 0.31^∗ log (Geq/mL)
- absolute abundance of S. sobrinus, mean ± SD log (Geq/mL) (S. sobrinus; substrate 1% (w/v)): 4.87 ± 0.22 log (Geq/mL)
- absolute abundance of S. sobrinus, mean ± SD log (Geq/mL) (S. sobrinus; substrate 1 M in PBS, n = 3): 3.46 ± 0.19^∗ log (Geq/mL)
- absolute abundance of S. mitis, mean ± SD log (Geq/mL) (S. mitis; substrate 1% (w/v)): 2.65 ± 0.00 log (Geq/mL)
- absolute abundance of S. mitis, mean ± SD log (Geq/mL) (S. mitis; substrate 1 M in PBS, n = 3): 3.38 ± 1.04 log (Geq/mL)
- absolute abundance of S. oralis, mean ± SD log (Geq/mL) (S. oralis; substrate 1% (w/v)): 7.11 ± 0.14 log (Geq/mL)
- absolute abundance of S. oralis, mean ± SD log (Geq/mL) (S. oralis; substrate 1 M in PBS, n = 3): 7.96 ± 0.59 log (Geq/mL)
- absolute abundance of P. gingivalis (Pg), mean ± SD log (Geq/mL) (P. gingivalis; substrate 1% (w/v)): 7.14 ± 0.28 log (Geq/mL)
- absolute abundance of P. gingivalis (Pg), mean ± SD log (Geq/mL) (P. gingivalis; substrate 1 M in PBS, n = 3): 4.43 ± 0.14^∗ log (Geq/mL)
- downregulation of P. gingivalis partC expression ([1]; substrate 1% (w/v)): approximately 2.8 fold
- fold change in fimA expression, geometric mean (95% C.I.) ([1]; substrate 1 % (w/v)): 1.15 (0.32-4.06) fold
- fold change in kgp expression, geometric mean (95% C.I.) ([1]; substrate 1 % (w/v)): 1.81 (0.44-7.50) fold
- fold change in partC expression, geometric mean (95% C.I.) ([1]; substrate 1 % (w/v)): 0.36 (0.08-1.68)^∗ fold
- fold change in rgpA expression, geometric mean (95% C.I.) ([1]; substrate 1 % (w/v)): 1.31 (1.03-1.66) fold
- fold change in fimA expression, geometric mean (95% C.I.) ([1]; substrate 1 M): 0.79 (0.44-1.39) fold
- fold change in kgp expression, geometric mean (95% C.I.) ([1]; substrate 1 M): 0.07 (0.04-0.13)^∗ fold
- fold change in partC expression, geometric mean (95% C.I.) ([1]; substrate 1 M): 0.19 (0.13-0.28)^∗ fold
- fold change in rgpA expression, geometric mean (95% C.I.) ([1]; substrate 1 M): 0.39 (0.18-0.84) fold
- fold change in aae expression, geometric mean (95% C.I.) [2, 3]: 1.55 (1.18-2.03) fold
- fold change in apaH expression, geometric mean (95% C.I.) [2, 3]: 0.73 (0.41-1.29) fold
- fold change in cdtB expression, geometric mean (95% C.I.) [2, 3]: 1.05 (0.61-1.81) fold
- fold change in emaA expression, geometric mean (95% C.I.) [2, 3]: 0.68 (0.15-3.07) fold
- fold change in flp expression, geometric mean (95% C.I.) [2, 3]: 0.54 (0.19-1.56) fold
- fold change in ltxA expression, geometric mean (95% C.I.) [2, 3]: 0.4 (0.11-1.39) fold
- fold change in omp29 expression, geometric mean (95% C.I.) [2, 3]: 0.77 (0.69-0.87) fold
- fold change in omp100 expression, geometric mean (95% C.I.) [2, 3]: 0.71 (0.42-1.18) fold
- fold change in orf859 expression, geometric mean (95% C.I.) [2, 3]: 1.99 (0.94-4.22)* fold
- fold change in pgA expression, geometric mean (95% C.I.) [2, 3]: 1.07 (0.29-3.97) fold
- fold change in vapA expression, geometric mean (95% C.I.) [2, 3]: 0.65 (0.48-0.86) fold
- fold change in vppA expression, geometric mean (95% C.I.) [2, 3]: 0.28 (0.09-0.86)* fold
- fold change in aae expression, geometric mean (95% C.I.) [2, 4]: 0.24 (0.18-0.33)^∗ fold
- fold change in apaH expression, geometric mean (95% C.I.) [2, 4]: 0.08 (0.02-0.29)^∗ fold
- fold change in cdtB expression, geometric mean (95% C.I.) [2, 4]: 0.04 (0.01-0.20)* fold
- fold change in emaA expression, geometric mean (95% C.I.) [2, 4]: 0.29 (0.07-1.20)* fold
- fold change in flp expression, geometric mean (95% C.I.) [2, 4]: 2.40 (0.67-8.67) fold
- fold change in ltxA expression, geometric mean (95% C.I.) [2, 4]: 0.01 (0.00-0.20)* fold
- fold change in omp29 expression, geometric mean (95% C.I.) [2, 4]: 0.19 (0.09-0.38)* fold
- fold change in omp100 expression, geometric mean (95% C.I.) [2, 4]: 0.03 (0.01-0.05)* fold
- fold change in orf859 expression, geometric mean (95% C.I.) [2, 4]: 0.13 (0.05-0.36)* fold
- fold change in pgA expression, geometric mean (95% C.I.) [2, 4]: 11.6 (3.23-41.74)* fold
- fold change in vapA expression, geometric mean (95% C.I.) [2, 4]: 1.00 (0.58-1.75) fold
- fold change in vppA expression, geometric mean (95% C.I.) [2, 4]: 0.49 (0.41-0.59) fold
